Experiment: xn = mol fraction of the nth substance listed
Details: 96.7 kPa, Liquid, Vibrating tube method

c1ccncc1 [pyridine] + CCCCn1cc[n+](C)c1.[Cl-]
mass density [kg/m3]
Details | x2 = 0 | x2 = 0.163 | x2 = 0.313 | x2 = 0.404 | x2 = 0.514 | x2 = 0.644 | x2 = 0.803 | x2 = 0.895
303.15 K | 973.09 | 1013.2 | 1035.67 | 1045.6 | 1054.49 | 1063.34 | 1072.41 | 1075.89
308.15 K | 968.06 | 1009.09 | 1032.05 | 1042.19 | 1051.2 | 1060.26 | 1069.51 | 1073.02
313.15 K | 963.02 | 1004.97 | 1028.43 | 1038.78 | 1047.94 | 1057.18 | 1066.59 | 1070.16
318.15 K | 957.97 | 1000.85 | 1024.82 | 1035.39 | 1044.72 | 1054.11 | 1063.66 | 1067.3
323.15 K | 952.9 | 996.73 | 1021.21 | 1032.01 | 1041.52 | 1051.04 | 1060.72 | 1064.45
328.15 K | 947.82 | 992.6 | 1017.6 | 1028.63 | 1038.33 | 1047.99 | 1057.81 | 1061.65
333.15 K | 942.72 | 988.47 | 1014 | 1025.25 | 1035.14 | 1044.96 | 1054.92 | 1058.86
338.15 K | 937.6 | 984.34 | 1010.4 | 1021.89 | 1031.93 | 1041.94 | 1052.08 | 1056.09
343.15 K | 932.46 | 980.21 | 1006.81 | 1018.53 | 1028.66 | 1038.93 | 1049.29 | 1053.31
348.15 K | 927.3 | 976.06 | 1003.22 | 1015.17 | 1025.27 | 1035.92 | 1046.57 | 1050.53
353.15 K | 922.12 | 971.91 | 999.63 | 1011.79 | 1021.81 | 1032.89 | 1044.02 | 1047.77

CCCCn1cc[n+](C)c1.[Cl-] [1-butyl-3-methylimidazolium chloride] + CN(C)C=O
mass density [kg/m3]
Details | x1 = 0.151 | x1 = 0.295 | x1 = 0.385 | x1 = 0.493 | x1 = 0.626 | x1 = 0.79 | x1 = 0.887 | x1 = 1
303.15 K | 987.64 | 1016.34 | 1030.08 | 1043.12 | 1055.89 | 1067.73 | 1072.65 | 1079.41
308.15 K | 983.55 | 1012.63 | 1026.56 | 1039.78 | 1052.75 | 1064.72 | 1069.74 | 1076.58
313.15 K | 979.45 | 1008.93 | 1023.05 | 1036.46 | 1049.6 | 1061.75 | 1066.84 | 1073.78
318.15 K | 975.35 | 1005.24 | 1019.54 | 1033.15 | 1046.6 | 1058.83 | 1063.95 | 1070.99
323.15 K | 971.26 | 1001.56 | 1016.05 | 1029.85 | 1043.35 | 1055.91 | 1060.97 | 1068.19
328.15 K | 967.16 | 997.89 | 1012.57 | 1026.56 | 1040.24 | 1052.99 | 1058.13 | 1065.36
333.15 K | 963.07 | 994.21 | 1009.1 | 1023.29 | 1037.16 | 1050.07 | 1055.31 | 1062.6
338.15 K | 958.97 | 990.55 | 1005.66 | 1020.03 | 1034.08 | 1047.16 | 1052.48 | 1059.87
343.15 K | 954.87 | 986.89 | 1002.24 | 1016.78 | 1031.03 | 1044.26 | 1049.67 | 1057.15
348.15 K | 950.78 | 983.24 | 998.82 | 1013.55 | 1027.98 | 1041.39 | 1046.88 | 1054.42
353.15 K | 946.68 | 979.59 | 995.4 | 1010.33 | 1024.94 | 1038.53 | 1044.11 | 1051.69

CCCCn1cc[n+](C)c1.[Cl-] [1-butyl-3-methylimidazolium chloride] + C[S+](C)[O-]
mass density [kg/m3]
Details | x1 = 0.161 | x1 = 0.309 | x1 = 0.401 | x1 = 0.509 | x1 = 0.641 | x1 = 0.801 | x1 = 0.894 | x1 = 1
303.15 K | 1090.42 | 1093.72 | 1092.13 | 1089.44 | 1086.22 | 1083.66 | 1081.72 | 1079.41
308.15 K | 1086.85 | 1089.98 | 1088.58 | 1086.09 | 1082.96 | 1080.69 | 1078.88 | 1076.58
313.15 K | 1083.14 | 1086.25 | 1085.04 | 1082.74 | 1079.73 | 1077.69 | 1075.99 | 1073.78
318.15 K | 1079.58 | 1082.54 | 1081.51 | 1079.35 | 1076.52 | 1074.71 | 1073.12 | 1070.99
323.15 K | 1075.76 | 1078.83 | 1078 | 1076.05 | 1073.33 | 1071.78 | 1070.22 | 1068.19
328.15 K | 1072.19 | 1075.14 | 1074.5 | 1072.7 | 1070.18 | 1068.87 | 1067.39 | 1065.36
333.15 K | 1068.87 | 1071.45 | 1071.01 | 1069.47 | 1067.09 | 1065.95 | 1064.59 | 1062.6
338.15 K | 1065.13 | 1067.76 | 1067.54 | 1066.13 | 1064.06 | 1063.04 | 1061.79 | 1059.87
343.15 K | 1061.44 | 1064.1 | 1064.07 | 1062.88 | 1061.11 | 1060.14 | 1058.99 | 1057.15
348.15 K | 1057.69 | 1060.44 | 1060.63 | 1059.65 | 1058.17 | 1057.25 | 1056.19 | 1054.42
353.15 K | 1053.72 | 1056.79 | 1057.19 | 1056.42 | 1055.25 | 1054.38 | 1053.41 | 1051.69

CCCCn1cc[n+](C)c1.[Cl-] [1-butyl-3-methylimidazolium chloride] + CC(=O)N(C)C
mass density [kg/m3]
Details | x1 = 0.177 | x1 = 0.332 | x1 = 0.428 | x1 = 0.538 | x1 = 0.664 | x1 = 0.816 | x1 = 0.904 | x1 = 1
303.15 K | 980.28 | 1010.24 | 1025.06 | 1038.52 | 1052.4 | 1066.29 | 1073.17 | 1079.41
308.15 K | 976.2 | 1006.61 | 1021.6 | 1035.1 | 1049.19 | 1063.28 | 1070.28 | 1076.58
313.15 K | 972.2 | 1002.98 | 1018.15 | 1031.7 | 1045.95 | 1060.2 | 1067.41 | 1073.78
318.15 K | 968.23 | 999.36 | 1014.71 | 1028.35 | 1042.78 | 1057.21 | 1064.54 | 1070.99
323.15 K | 964.27 | 995.75 | 1011.28 | 1024.85 | 1039.56 | 1054.27 | 1061.66 | 1068.19
328.15 K | 960.32 | 992.15 | 1007.86 | 1021.56 | 1036.44 | 1051.33 | 1058.85 | 1065.36
333.15 K | 956.38 | 988.55 | 1004.46 | 1018.33 | 1033.37 | 1048.41 | 1056.06 | 1062.6
338.15 K | 952.45 | 984.97 | 1001.06 | 1015.16 | 1030.34 | 1045.52 | 1053.26 | 1059.87
343.15 K | 948.53 | 981.38 | 997.67 | 1012.07 | 1027.37 | 1042.67 | 1050.47 | 1057.15
348.15 K | 944.61 | 977.8 | 994.29 | 1009.03 | 1024.45 | 1039.87 | 1047.69 | 1054.42
353.15 K | 940.67 | 974.22 | 990.92 | 1006.06 | 1021.59 | 1037.13 | 1044.91 | 1051.69
